Data as given in the supplement of paper PMC10307832.

Key:
Test in all cases: relative viability (nuclei count vs DMSO), 5 days (fraction); higher = more cells survive
CAL-12T = tested on: CAL-12T
Summary of the method: (§1)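 Relative viability equals treated-well nuclei counts divided by vehicle-well nuclei counts. Counts came from 4× images of lung cancer cell lines grown in 1536-well plates for 5 days after pin-tool dosing on the day after seeding. Dosing used one drug alone or a fixed anchor-drug dose plus five library-drug doses (not always all listed) in √10 steps, and values are medians of duplicate plates.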

LC-2-ad = tested on: LC-2-ad
Summary of the method: as §1

NCI-H650 = tested on: NCI-H650
Summary of the method: as §1

NCI-H1651 = tested on: NCI-H1651
Summary of the method: as §1

NCI-H727 = tested on: NCI-H727
Summary of the method: as §1

NCI-H596 = tested on: NCI-H596
Summary of the method: as §1

NCI-H520 = tested on: NCI-H520
Summary of the method: as §1

NCI-H1915 = tested on: NCI-H1915
Summary of the method: as §1

PC-3 [JPC-3] = tested on: PC-3 [JPC-3]
Summary of the method: as §1

NCI-H441 = tested on: NCI-H441
Summary of the method: as §1

H3255 = tested on: H3255
Summary of the method: as §1

NCI-H1944 = tested on: NCI-H1944
Summary of the method: as §1

NCI-H1792 = tested on: NCI-H1792
Summary of the method: as §1

A-427 = tested on: A-427
Summary of the method: as §1

NCI-H460 = tested on: NCI-H460
Summary of the method: as §1

BEN = tested on: BEN
Summary of the method: as §1

NCI-H661 = tested on: NCI-H661
Summary of the method: as §1

LCLC-97TM1 = tested on: LCLC-97TM1
Summary of the method: as §1

ABC-1 = tested on: ABC-1
Summary of the method: as §1

NCI-H2023 = tested on: NCI-H2023
Summary of the method: as §1

NCI-H2087 = tested on: NCI-H2087
Summary of the method: as §1

201T = tested on: 201T
Summary of the method: as §1

Compound `CC1(C)CCC(c2ccc(Cl)cc2)=C(CN2CCN(c3ccc(C(=O)NS(=O)(=O)c4ccc(N[C@H](CCN5CCOCC5)CSc5ccccc5)c(S(=O)(=O)C(F)(F)F)c4)cc3)CC2)C1` [Navitoclax] + Cc1nc(NC(=O)N2CCC[C@H]2C(N)=O)sc1-c1ccnc(C(C)(C)C(F)(F)F)c1 [Alpelisib] (partner 2 µM) has a relative viability (CAL-12T; first compound 0.005 µM) of 1.08, a relative viability (CAL-12T; first compound 0.01581 µM) of 1.28 and a relative viability (CAL-12T; first compound 0.05 µM) of 1.31. The relative viability (CAL-12T; first compound 0.1581 µM) was 1.25, the relative viability (CAL-12T; first compound 0.5 µM) was 1.11 and the relative viability (LC-2-ad; first compound 0.005 µM) was 0.972. It also gave a relative viability (LC-2-ad; first compound 0.01581 µM) of 0.948, a relative viability (LC-2-ad; first compound 0.05 µM) of 0.901 and a relative viability (LC-2-ad; first compound 0.1581 µM) of 0.946. It also gave a relative viability (LC-2-ad; first compound 0.5 µM) of 0.904, a relative viability (NCI-H650; first compound 0.005 µM) of 1.1 and a relative viability (NCI-H650; first compound 0.01581 µM) of 1.15. The relative viability (NCI-H650; first compound 0.05 µM) was 1.15, the relative viability (NCI-H650; first compound 0.1581 µM) was 1.11 and the relative viability (NCI-H650; first compound 0.5 µM) was 1.16. The relative viability (NCI-H1651; first compound 0.005 µM) was 0.929, the relative viability (NCI-H1651; first compound 0.01581 µM) was 0.899 and the relative viability (NCI-H1651; first compound 0.1581 µM) was 1. The relative viability (NCI-H1651; first compound 0.5 µM) was 0.946, the relative viability (NCI-H727; first compound 0.005 µM) was 0.5 and the relative viability (NCI-H727; first compound 0.01581 µM) was 0.619. It also gave a relative viability (NCI-H727; first compound 0.1581 µM) of 0.526, a relative viability (NCI-H727; first compound 0.5 µM) of 0.434 and a relative viability (NCI-H596; first compound 0.005 µM) of 0.515. It also gave a relative viability (NCI-H596; first compound 0.01581 µM) of 0.481, a relative viability (NCI-H596; first compound 0.05 µM) of 0.399 and a relative viability (NCI-H596; first compound 0.1581 µM) of 0.57. It also gave a relative viability (NCI-H596; first compound 0.5 µM) of 0.408, a relative viability (NCI-H520; first compound 0.005 µM) of 0.915 and a relative viability (NCI-H520; first compound 0.01581 µM) of 0.892. For the same compound, the relative viability (NCI-H520; first compound 0.05 µM) was 0.981, the relative viability (NCI-H520; first compound 0.1581 µM) was 0.892 and the relative viability (NCI-H520; first compound 0.5 µM) was 0.982. For the same compound, the relative viability (NCI-H1915; first compound 0.005 µM) was 1.08, the relative viability (NCI-H1915; first compound 0.01581 µM) was 1.06 and the relative viability (NCI-H1915; first compound 0.05 µM) was 1.01. For the same compound, the relative viability (NCI-H1915; first compound 0.1581 µM) was 0.94, the relative viability (NCI-H1915; first compound 0.5 µM) was 1 and the relative viability (PC-3 [JPC-3]; first compound 0.005 µM) was 1.04. It also gave a relative viability (PC-3 [JPC-3]; first compound 0.01581 µM) of 1.02, a relative viability (PC-3 [JPC-3]; first compound 0.05 µM) of 1.02 and a relative viability (PC-3 [JPC-3]; first compound 0.1581 µM) of 1.03. The relative viability (PC-3 [JPC-3]; first compound 0.5 µM) was 1.06, the relative viability (NCI-H441; first compound 0.005 µM) was 0.654 and the relative viability (NCI-H441; first compound 0.01581 µM) was 0.901. For the same compound, the relative viability (NCI-H441; first compound 0.05 µM) was 0.852, the relative viability (NCI-H441; first compound 0.1581 µM) was 0.743 and the relative viability (NCI-H441; first compound 0.5 µM) was 0.63. It also gave a relative viability (H3255; first compound 0.005 µM) of 0.635, a relative viability (H3255; first compound 0.01581 µM) of 0.745 and a relative viability (H3255; first compound 0.05 µM) of 0.6. The relative viability (H3255; first compound 0.1581 µM) was 0.744, the relative viability (H3255; first compound 0.5 µM) was 0.732 and the relative viability (NCI-H1944; first compound 0.005 µM) was 0.832. It also gave a relative viability (NCI-H1944; first compound 0.01581 µM) of 0.863, a relative viability (NCI-H1944; first compound 0.05 µM) of 0.786 and a relative viability (NCI-H1944; first compound 0.1581 µM) of 0.836. The relative viability (NCI-H1944; first compound 0.5 µM) was 0.82, the relative viability (NCI-H1792; first compound 0.005 µM) was 0.735 and the relative viability (NCI-H1792; first compound 0.01581 µM) was 0.878. The relative viability (NCI-H1792; first compound 0.05 µM) was 0.534, the relative viability (NCI-H1792; first compound 0.1581 µM) was 0.657 and the relative viability (NCI-H1792; first compound 0.5 µM) was 0.692. The relative viability (A-427; first compound 0.005 µM) was 1.01, the relative viability (A-427; first compound 0.01581 µM) was 1.06 and the relative viability (A-427; first compound 0.05 µM) was 0.908. For the same compound, the relative viability (A-427; first compound 0.1581 µM) was 1.14, the relative viability (A-427; first compound 0.5 µM) was 1.04 and the relative viability (NCI-H460; first compound 0.005 µM) was 0.5. For the same compound, the relative viability (NCI-H460; first compound 0.01581 µM) was 0.533, the relative viability (NCI-H460; first compound 0.05 µM) was 0.639 and the relative viability (NCI-H460; first compound 0.1581 µM) was 0.511. The relative viability (NCI-H460; first compound 0.5 µM) was 0.46, the relative viability (BEN; first compound 0.005 µM) was 0.983 and the relative viability (BEN; first compound 0.01581 µM) was 1.13. The relative viability (BEN; first compound 0.05 µM) was 1.02, the relative viability (BEN; first compound 0.1581 µM) was 1.08 and the relative viability (BEN; first compound 0.5 µM) was 0.831. For the same compound, the relative viability (NCI-H661; first compound 0.005 µM) was 0.438, the relative viability (NCI-H661; first compound 0.01581 µM) was 0.468 and the relative viability (NCI-H661; first compound 0.05 µM) was 0.479. The relative viability (NCI-H661; first compound 0.1581 µM) was 0.465, the relative viability (NCI-H661; first compound 0.5 µM) was 0.673 and the relative viability (LCLC-97TM1; first compound 0.005 µM) was 0.335. The relative viability (LCLC-97TM1; first compound 0.01581 µM) was 0.328, the relative viability (LCLC-97TM1; first compound 0.05 µM) was 0.241 and the relative viability (LCLC-97TM1; first compound 0.1581 µM) was 0.228. For the same compound, the relative viability (LCLC-97TM1; first compound 0.5 µM) was 0.243, the relative viability (ABC-1; first compound 0.005 µM) was 1.14 and the relative viability (ABC-1; first compound 0.01581 µM) was 1.39. For the same compound, the relative viability (ABC-1; first compound 0.05 µM) was 1.04, the relative viability (ABC-1; first compound 0.1581 µM) was 0.899 and the relative viability (ABC-1; first compound 0.5 µM) was 1.01. For the same compound, the relative viability (NCI-H2023; first compound 0.005 µM) was 0.581, the relative viability (NCI-H2023; first compound 0.01581 µM) was 0.696 and the relative viability (NCI-H2023; first compound 0.05 µM) was 0.586. The relative viability (NCI-H2023; first compound 0.1581 µM) was 0.616, the relative viability (NCI-H2023; first compound 0.5 µM) was 0.625 and the relative viability (NCI-H2087; first compound 0.005 µM) was 1.25. For the same compound, the relative viability (NCI-H2087; first compound 0.01581 µM) was 1.17, the relative viability (NCI-H2087; first compound 0.05 µM) was 1.03 and the relative viability (NCI-H2087; first compound 0.1581 µM) was 1.05. For the same compound, the relative viability (NCI-H2087; first compound 0.5 µM) was 1.08, the relative viability (201T; first compound 0.005 µM) was 1.03 and the relative viability (201T; first compound 0.01581 µM) was 1.04. The relative viability (201T; first compound 0.05 µM) was 1.02, the relative viability (201T; first compound 0.1581 µM) was 1 and the relative viability (201T; first compound 0.5 µM) was 1.03.
